Results on two substances are retold here after patent US9447157B2, “Nitration shielding peptides and methods of use thereof” (Augusta University Research Institute, Inc., priority 2013, dated 2016).

Experiment [1] has as its system HLMVEC. Description: Total protein nitration (3-NT/β-actin) in LPS-treated HLMVEC. It counts as cell-based, human. As to conditions: peptide 100 ng/ml 30 min, then LPS 1 EU/ml.
Description: Cell extracts were separated on 4-20% gels and electrophoretically transferred to PVDF membrane (Bio-Rad), then blocked with 5% nonfat dry milk in Tris-buffered saline. The membranes were probed with antibodies to RhoA (Cell Signaling), eNOS (BD), iNOS (Cell Signaling), or 3-Nitrotyrosine (Calbiochem). Reactive bands were visualized using chemi-luminescence (Pierce) on a Kodak 440CF image station. Band intensity was quantified using Kodak 1D image processing software. Protein loading was normalized by re-probing with mouse anti-β-actin.
Experiment [2] relates to human lung microvascular endothelial cells (HLMVEC). Description: Endothelial monolayer resistance (ECIS, TER) in LPS-challenged HLMVEC. Particulars: HLMVEC, peptide 100 ng/ml 30 min, then LPS 1 EU/ml. The experiment is classed as cell-based. The procedure:
The electrical resistance of the endothelial cell monolayer was measured with the electrical cell impedance sensor (ECIS) technique. In this system, the cells are cultured on gold plated electrodes. The change in resistance across the monolayer is measured through an amplifier attached to the arrays. Each study was performed when the resistance reached a plateau. The data was normalized to the initial voltage and plotted as a normalized resistance.
To examine if protein nitration by peroxynitrite is a contributing factor in endothelial barrier disruption in response to LPS, transendothelial resistance (TER) was measured in HLMVEC in the presence or absence of the peroxynitrite scavenger, MnTmPyp. HLMVEC were challenged with LPS (1 EU/ml) in the presence or absence of the peroxynitrite scavenger, MnTMPyP (25 μM).
To evaluate the role played by NOS in the barrier dysfunction, HLMVEC were exposed to LPS in the presence or absence of ETU (a non-specific NOS inhibitor) or 1400W (to inhibit iNOS). HLMVEC were challenged with LPS (1 EU/ml) in the presence or absence of the general NOS inhibitor, ETU (200 μM) or the iNOS specific inhibitor, 1400W (100 μM). The LPS-mediated decrease in TER was attenuated in the presence of ETU, but not 1400W (FIG. 1B). The important role of eNOS was then confirmed using a siRNA approach. HLMVEC were transiently transfected with a siRNA against eNOS or a scrambled control siRNA. After 48 h, there was a significant knockdown of eNOS protein levels (50%), as determined by Western blotting. Reducing eNOS protein levels preserved HLMVEC barrier function when challenged with LPS (FIG. 1C).

The target in experiment [3] is T1, RhoA (Mus musculus, UniProt Q9QUI0).
T1 construct: from tissue; host or cells: mouse lung (male C57Bl/6)
The experiment in a line: RhoA activity, nitration and protein in lungs of LPS treated mice. The experiment is classed as in vivo. The procedure:
The Committee on Animal Research at Georgia Regents University approved all animal protocols and procedures. Stock solutions of Escherichia coli LPS (0111:B4) were prepared in saline. […] Mice were examined 24 h after LPS treatment. At the end of the treatment lungs were flushed with 3 ml of ice-cold PBS (5 mM EDTA), excised, dipped in saline and blotted dry. A portion of the lung was quickly snap-frozen in liquid nitrogen, crushed to powder in a pre-chilled mortar and stored at -80° C. The remaining lung tissue was stored at -80° C. […] After 24 h, mice were sacrificed and lung tissue was obtained to determine RhoA activity and RhoA nitration, LPS induced RhoA activation in the mouse lung as in HLMVEC (FIG. 7A). […] Total RhoA protein levels and basal RhoA nitration were measured. […] Likewise, basal RhoA nitration levels (FIG. 7D) were unchanged.

The test system of experiment [4] is HLMVEC. The experiment in a line: Gaps formation between cells (ZO-1 immunofluorescence) in HLMVEC. It counts as cell-based, human. As to conditions: peptide 100 ng/ml, LPS 1 EU/ml. The procedure:
HLMVEC were grown on gelatin-coated coverslips and exposed to LPS in the presence or absence of the NipR1 peptides. The cells were permeabilized and blocked for 1 h at 25° C. in 5% BSA blocking buffer. A primary antibody against ZO-1 (Invitrogen, 1:100 dilution) was added. Plates were incubated overnight at 4° C. then a secondary antibody (AlexaFluor) was added for 2 h. Slides were examined with Zeiss immunofluorescence microscope Axio Observer D1. The gaps between the cells were calculated using Zeiss Axio Observer software.

Another experiment has as its system LPS treated mice. Description: Mouse model of ALI induced by intra-tracheal LPS: BALF, weight, histopathology, MPO, lung mechanics, cytokines. It counts as in vivo. The procedure:
The Committee on Animal Research at Georgia Regents University approved all animal protocols and procedures. Stock solutions of Escherichia coli LPS (0111:B4) were prepared in saline. […] Mice were examined 24 h after LPS treatment. At the end of the treatment lungs were flushed with 3 ml of ice-cold PBS (5 mM EDTA), excised, dipped in saline and blotted dry. A portion of the lung was quickly snap-frozen in liquid nitrogen, crushed to powder in a pre-chilled mortar and stored at −80° C. The remaining lung tissue was stored at −80° C.
Isolation of Bronchoalveolar Lavage Fluid (BALF) BALF was obtained by instilling and withdrawing 1 mL of PBS via a tracheal cannula. Part of the solution was used to determine protein levels in the BALF. In addition, cells were pelleted at 2,500 g for 10 min and resuspended in water for 15 sec to lyse red blood cells. Leukocytes were resuspended in 1 ml PBS, and total cell count determined using a haemocytometer.
Mice were anesthetized with pentobarbital (90 mg/kg, i.p.), tracheostomized with a metal 1.2 mm (internal diameter) cannula and connected to a Flexi Vent (Scireq Inc) ventilator. Ventilation was initiated at a tidal volume of 10 ml/kg and a rate of 150/min. A TLC maneuver was performed, followed by 15 sec later, by a sinusoidal 1 Hz oscillation. Subsequently, an 8 sec forced oscillatory signal (0.5-19.6 Hz) was applied, the mechanical input impedance of the respiratory system was calculated, and a model containing a constant phase tissue compartment was fit to input impedance in order to evaluate tissue elastance. Dynamic pressure-volume maneuvers were performed by step-wise increasing the airway pressure to 30 cm H2O and then reversing the process.
Lungs were inflated with 10% formalin under 15 cm H2O pressure and immersed in the same solution before tissue processing into paraffin embedded blocks and 4 μm sections were then cut stained with H&E. Histopathological assessment was conducted by two researchers who were masked to treatment group. H&E stained sections were scored for the presence of neutrophil in the alveolar space, neutrophils in the interstitial space, the existence of hyaline membranes, proteinaceous debris filling the airspaces and alveolar septal thickening as described previously (Matute-Bello, et al., Am. J. Respir. Cell Mol. Biol. 44, 725-738 (2011)).
Sections (5 μm) were cut from paraffin blocks and mounted on treated slides (Superfrost+). Slides were air dried overnight, placed in a 60° C. oven for 30 min, deparaffinized in xylene and run through graded alcohol to distilled water. Endogenous peroxidase was quenched with 0.3% H2O2 for 5 min, followed by two rinses with distilled water. Slides were pretreated with Target pH 6, (Dako), rinsed in distilled water, incubated in Power Block (Biogenex), rinsed in distilled water, placed in PBS for 5 min, incubated with primary antimyeloperoxidase (Cappel, 1:2000 dilution) for 30 min at 25° C. After two rinses in PBS, slides were incubated with a peroxidase-labeled polymer conjugated to goat anti-rabbit secondary IgG (Envision+, Dako) for 30 min and rinsed in PBS. Bound antibody was detected with the DAB+ substrate kit, (Dako). Hematoxylin was used as a counter-stain. MPO-stained slides were then evaluated by scoring (0-4) for the presence of neutrophils within the alveolar walls.
Analytes (pg/mL) were assessed with the MCYTOMAG70K assay (EMD Millipore) as previously described (Lucas, R., et al., Proc. Natl. Acad. Sci. USA 109, 2084-2089 (2012)).
Mice were used to perform additional physiological, biochemical and morphological studies to evaluate the efficacy of the NipR1 peptide in attenuating symptoms of ALI. […] After 24 h, mice were anesthetized and BALF was collected. Measurements of lung mechanics were also carried out.

In experiment [5] the target is T2, RhoA (Homo sapiens, UniProt P61586, Y34F).
T2 construct: polyHis (6His); made in house; host or cells: Escherichia coli BL21
The experiment in a line: Stopped-flow kinetic analysis of mant-GDP/mant-GTP binding to RhoA. Particulars: stop-flow analysis, purified Y34F RhoA. On the procedure:
RhoA was treated with authentic peroxynitrite (500 μM, 30 min) to induce tyrosine nitration in buffered solution. For kinetic analyses, 2 μM of either mart-GTP or -GDP was mixed with RhoA (0.1 μM) in a stopped-flow instrument (SX-20, […]). Increases in fluorescent intensity mant-nucleotide binding to RhoA were then measured using excitation 350 nm and cutoff filter 395 nm for 0.2-1 second. Acquired kinetic curves for 3-5 experiments were averaged and fitted using the Pro-kineticist software to determine observed binding constants.
To test the validity of the MD data kinetic studies were performed. His-tagged human RhoA construct was expressed in the Escherichia con BL21 strain. First, the bacterial lysate was purified by 6His-tag affinity on a Ni-NTA column. Second, the proteins in the elution fraction from the affinity purification were separated by size-exclusion chromatography (FIG. 11). The fraction containing RhoA was identified both by Coomassie blue staining and Western blot analysis. The recombinant purified RhoA was subjected to rapid flow kinetics to evaluate GDP and GTP binding using fluorescently labeled guanine nucleotides. Peroxynitrite decreases GDP binding to purified RhoA. Human recombinant RhoA was exposed to authentic peroxynitrite (100 μM, 30 min) on ice. […]

Where [6] appears, read: peptide i.p. 0.1 mg/kg 6 h prior to i.t. LPS 2 mg/kg, 24 h.

T1 sequence (Q9QUI0 whole entry): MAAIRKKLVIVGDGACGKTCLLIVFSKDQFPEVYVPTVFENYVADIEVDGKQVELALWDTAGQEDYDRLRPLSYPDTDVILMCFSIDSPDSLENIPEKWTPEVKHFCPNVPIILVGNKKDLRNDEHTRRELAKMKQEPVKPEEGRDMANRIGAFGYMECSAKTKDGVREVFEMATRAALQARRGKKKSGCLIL
T2 sequence (P61586 whole entry Y34F): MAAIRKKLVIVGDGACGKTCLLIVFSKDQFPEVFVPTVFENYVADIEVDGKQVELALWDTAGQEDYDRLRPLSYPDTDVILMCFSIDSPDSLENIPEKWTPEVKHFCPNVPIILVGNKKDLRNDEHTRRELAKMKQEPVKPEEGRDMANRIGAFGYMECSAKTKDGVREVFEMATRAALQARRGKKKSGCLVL

With “HRKKRRQRRRQFPVYVPTVF (SEQ ID NO:25) (Human immunodeficiency virus) [NipR1]”, the “Increase in total protein nitration induced by LPS” value in the experiment on HLMVEC [1] is on record as “unaffected”. Besides, the “Attenuation of LPS-mediated disruption of the HLMVEC barrier (preservation of TER)” value in experiment [2] is “attenuated”. In the experiment with RhoA [3] (peptide alone, no LPS), the “Basal RhoA nitration levels in mouse lung” value is reported as “unchanged”. For the same substance, in the experiment with RhoA [3] (setting [6]), the “Attenuation of LPS-mediated increase in RhoA activity in the mouse lung” value is “attenuated” and the “Attenuation of LPS-mediated increase in RhoA nitration in the mouse lung” value is reported as “attenuated”. In addition, in the experiment with RhoA [3] (peptide i.p. 0.1 mg/kg, with or without LPS), the “Total RhoA protein levels in mouse lung” value is on record as “Neither peptide nor LPS treatment altered”. The “Cell-cell gaps after LPS” value in the experiment with HLMVEC [4] is “reduction”. Moreover, in the experiment with LPS treated mice (LPS + NipR1 vs LPS, MCYTOMAG-70K assay), the “LPS-mediated induction of multiple pro-inflammatory cytokines and chemokines in BALF” value is “attenuated”. Also, in the experiment with LPS treated mice (setting [6]), the “Attenuation of LPS induced increase in MPO staining in the alveolar space” value was “attenuated”, the “Attenuation of LPS-induced increase in total white blood cell counts in BALF” value is “attenuated”, the “MPO activity in lung homogenates after LPS” value is on record as “attenuated” and the “Prevention of LPS-induced reduction in lung elastance (dynamic pressure-volume relationships)” value is recorded as “prevented”. Moreover, in the experiment with LPS treated mice (setting [6]), the “Prevention of weight loss associated with LPS exposure” value is “able to prevent” and the “Reduction of LPS-induced histopathological changes in the lungs (H&E)” value is given as “reduced”. Moreover, in the experiment on LPS treated mice (peptide i.p. prior to i.t. LPS), the “Inflammatory response induced by LPS” value is “reduced”.
As to “Y34FRhoA: purified RhoA mutant protein in which the tyrosine residue (Y) was replaced by phenylalanine”, the “Binding of GTP (mant-GTP) to RhoA mutant” value in the experiment with RhoA [5] was “No binding”.
